The record followed here is US20130065227A1, “METHODS OF INCREASING MACROPINOCYTOSIS IN CANCER CELLS” (priority 2010, published 2013).

Common to all, as to format: cell-based
One data set concerns DU145. Kind of data set: Uptake of AS1411 by macropinocytosis (MP). To be noted: DU145; Cancer, prostate. How it is done: FIG. 2 are graphs showing that AS1411 is internalized by different endocytic mechanisms in DU145 cancer cells and in non-malignant Hs27 cells. DU145 or Hs27 cells were plated 18 h before uptake analysis. Cells were pre-treated as described with inhibitor (gray histogram) or the corresponding vehicle control (black histogram) before addition of 10 μM FL-AS1411 and incubation at 37° C. for 2 h. After incubation, cells were harvested and analyzed by flow cytometry. Pre-treatment conditions were at 37° C. with: (Panel A) 5 μM Cytochalasin D for 30 min; (Panel B) 80 μM Dynasore for 30 min; or (Panel C) 3 mM amiloride for 1 h. All experiments were repeated at least three times and representative data are shown. Solid gray histograms represent background autofluorescence of unstained cells.
To analyze uptake of the oligodeoxynucleotides or dextran-10K (macropinocytic marker) by flow cytometry, 2×10^5 cells in fresh supplemented culture medium (2.5 ml) were plated into 6-well plates for 18 h. After complete adhesion, the cells were incubated with 5′-FAM tagged oligodeoxynucleotides or Alexa Fluor 488 tagged dextran-10K and incubated as indicated in the Description of the Drawings. Cells were washed once with ice-cold PBS, incubated with 1 μg/ml 7-amino-actinomycin D (7-AAD) for 5 min on ice or 1 μg/ml propidium iodide (PI), and washed twice with ice-cold PBS. […]

The subject of the next data set is MCF7. Kind of data set: Uptake of AS1411 by macropinocytosis (MP). To be noted: MCF7; Cancer, breast. The text has this:
(§1) There was little effect of amiloride treatment on uptake of FL-CRO in either DU145 cancer cells or non-malignant Hs27 cells (FIG. 9B). […] These studies also confirmed the previous results that there was higher overall uptake of FL-AS1411 in Hs27 cells than in DU145 cells.
(§2) It has recently been discovered that AS1411 can stimulate macropinocytosis (MP) in cancer cells and this finding was verified by several different methods and in multiple cancer cell lines (Table 1).

The next data set deals with MDA-MB-231. Kind of data set: Uptake of AS1411 by macropinocytosis (MP). To be noted: MDA-MB-231; Cancer, breast.
Description: as §1, §2

The next data set deals with A549. Kind of data set: Stimulation of macropinocytosis (dextran uptake). As to conditions: Cancer, non-small cell lung.
Description: as §2

In another data set the test system is BEAS2B. Description: Stimulation of macropinocytosis (dextran uptake). To be noted: Non-cancer, lung epithelial.
Description: as §2

The test system of a further data set is CHO. Description: Stimulation of macropinocytosis (dextran uptake). To be noted: Non-cancer, hamster ovary.
Description: as §2

The subject of a further data set is RCC4. Description: Stimulation of macropinocytosis (dextran uptake). To be noted: Cancer, renal cell.
Description: as §2

The test system of another data set is RWPE1. Description: Stimulation of macropinocytosis (dextran uptake). As to conditions: Non-cancer, prostate epithelial.
Description: as §2

In a further data set the test system is SK-N-DZ. Kind of data set: Stimulation of macropinocytosis (dextran uptake). To be noted: Cancer, neuroblastoma.
Description: as §2

The test system of the next data set is most cancer cells tested. Description: Cell death on continuous exposure. As to conditions: 10 μM AS1411. As for the experimental part: As described above, it is known that AS1411 can induce an unusual form of cell death in cancer cells. It was previously shown that G-rich oligonuclotides could induce cell death selectively in cancer cells compared to non-malignant cells, but it was noted that the morphology of the cells was inconsistent with death by apoptosis. The timing of cell death was also quite unusual, with continuous exposure (at 10 μM AS1411) for 7 days or more required to cause complete cell death for most cancer cells tested. […] However, cell death was also dose-dependent and occurred within hours in DU145 cells treated with 40 μM AS1411. Based on the various published reports, the cell death mechanism in U937 leukemia cells was investigated, and it was confirmed that cell death was not by apoptosis (FIG. 14 A-D). […] Although the same detailed studies of cell death have not been carried out in other cancer cell lines, it is consistently seen that AS1411-responsive cells die with a characteristic morphology (enlarged and vacuolated cells) without evidence of apoptosis.

For another data set, the system named is U937 leukemia cells. Kind of data set: Cell death mechanism (DNA laddering, immunoblotting, electron microscopy). How it is done:
(A) Trypan blue staining of U937 leukemia cells showing percentage of dead cells (trypan blue positive) over time. (B) U937 cells were untreated (Un) or treated with 1 μM AS1411 (1411) or control oligonucleotide (Ctrl) for 72 h. DNA was extracted, electrophoresed on an agarose gel and stained with ethidium bromide to probe DNA laddering. As a positive control, […] were treated with UV irradiation to induce apoptosis as previously described. […] (D) U937 cells treated as described for panel B, followed by protein extraction and immunoblotting (IB) to detect PARP cleavage and Caspase-3 activation. (E) DU145 prostate cancer cells were incubated with 10 μM of AS1411 for 24 h, or irradiated with UV (300 J/m^2 with UV Stratalinker 2400, Strategene), then cultured in fresh medium for 6 h. Assessment of cell death was carried out by flow cytometry to detect Annexin V-FITC binding and PI staining.
In general terms: Immunoblotting shows a protein as a band on a membrane.

Data set [1] deals with DU145 CD24^lo/CD44^hi cells. Description: Spheroid culture. As to conditions: 10 μM AS1411, drug replenished weekly. As for the experimental part: DU145 CD24^lo/CD44^hi cells were sorted by FACS, plated for sphere culture, and treated with or without 10 μM AS1411. Media was changed and drug replenished weekly. Plates were monitored for dissolution of spheres. Once dissolution was observed, serial photographs were taken of each well and the total number of spheres counted.

“5′-d(GGTGGTGGTGGTTGTGGTGGTGGTGG) [AS1411]”: the “Update by MP?” value with DU145, in the data set on MCF7 and in the data set on MDA-MB-231 was “Yes” throughout. In addition, the “Stimulate MP?” value was “Yes” in the data set with A549; “No” in the data set with BEAS2B; “No” in the data set on CHO; “Yes” in the data set with RCC4; “No” in the data set with RWPE1; “Yes” in the data set on SK-N-DZ. Also, in the data set on most cancer cells tested, the “continuous exposure required to cause complete cell death” value is at least 7 days. In the data set on U937 leukemia cells, the “effect on DNA replication and cell division” value was “inhibited DNA replication and cell division”. Besides, the “effect on protein synthesis” value in the data set with U937 leukemia cells is “not inhibited”. Besides, the “induction of apoptosis markers” value in the data set on U937 leukemia cells (1 μM, 72 h, UV irradiation as positive control) is “does not induce DNA laddering, PARP cleavage, or Caspase-3 activation”. Further, the “cell death morphology in electron micrographs” value in the data set on U937 leukemia cells (72 h) was “necrosis-like cell death”. Besides, in [1], the effect on spheroids result is “can cause disintegration of spheroids”.
